In ChEMBL document CHEMBL4680273, “Teixobactin: A Paving Stone toward a New Class of Antibiotics?” (2020):
In brackets after ≈: the same amount, converted by molar mass.

Key:
Assay type in all cases: functional
[1] = tested on: Staphylococcus aureus; test: Antibacterial activity against Staphylococcus aureus ATCC 29213
[2] = tested on: Staphylococcus aureus; test: Antibacterial activity against methicillin- resistant Staphylococcus aureus SA86
[3] = tested on: Staphylococcus aureus; test: Antibacterial activity against Staphylococcus aureus TH4112 incubated for 16 to 20 hrs by CLSI-based broth microdilution method; details: time 16-20 hrs
[4] = tested on: Staphylococcus aureus; test: Antibacterial activity against methicillin- resistant Staphylococcus aureus TH4115 incubated for 16 to 20 hrs by CLSI-based broth microdilution method; details: time 16-20 hrs
[5] = tested on: Staphylococcus aureus; test: Antibacterial activity against methicillin resistant Staphylococcus aureus USA300
[6] = tested on: Staphylococcus aureus; test: Antibacterial activity against Staphylococcus aureus ATCC 29213 incubated for 20 hrs by CLSI-based broth microdilution checkerboard method
[7] = tested on: Staphylococcus aureus; test: Antibacterial activity against Staphylococcus aureus ATCC 29213 incubated for 16 hrs by UV/Visible absorbance method
[8] = tested on: Staphylococcus epidermidis; test: Antibacterial activity against Staphylococcus epidermidis ATCC 14990 incubated for 16 hrs by UV/Visible absorbance method
[9] = tested on: Staphylococcus aureus; test: Antibacterial activity against Staphylococcus aureus SH1000 incubated for 24 hrs by CLSI-broth microdilution method; details: Staphylococcus aureus, SH1000, read-out: MIC
[10] = tested on: Pseudomonas aeruginosa; test: Antibacterial activity against Pseudomonas aeruginosa PAO1 incubated for 24 hrs in presence of colistin by Checkerboard assay
[11] = tested on: Staphylococcus aureus; test: Antibacterial activity against Staphylococcus aureus 25923 incubated for 24 hrs by CLSI based broth microdilution method
[12] = tested on: Staphylococcus aureus; test: Antibacterial activity against Staphylococcus aureus
[13] = tested on: Bacillus subtilis; test: Antibacterial activity against Bacillus subtilis ATCC 6051 incubated for 24 hrs by CLSI based broth microdilution method
[14] = tested on: Staphylococcus aureus; test: Antibacterial activity against methicillin resistant Staphylococcus aureus
[15] = tested on: Bacillus spizizenii; test: Antibacterial activity against Bacillus subtilis ATCC 6633 by M07-A9 CLSI method
[16] = tested on: Bacillus subtilis; test: Antibacterial activity against Bacillus subtilis ATCC 6051 incubated for 16 hrs by UV/Visible absorbance method
[17] = tested on: Bacillus subtilis; test: Antibacterial activity against Bacillus subtilis ATCC 6051 incubated for 16 hrs by two-fold serial dilution method
[18] = tested on: Enterococcus durans; test: Antibacterial activity against Enterococcus durans ATCC 6056 incubated for 16 hrs by two-fold serial dilution method
[19] = tested on: Streptococcus salivarius; test: Antibacterial activity against Streptococcus salivarius ATCC 13419 incubated for 16 hrs by two-fold serial dilution method
[20] = tested on: Staphylococcus aureus; test: Antibacterial activity against Staphylococcus aureus ATCC 29213 incubated for 16 hrs by two-fold serial dilution method
[21] = tested on: Staphylococcus epidermidis; test: Antibacterial activity against Staphylococcus epidermidis ATCC 14990 incubated for 16 hrs by two-fold serial dilution method
[22] = tested on: Staphylococcus aureus; test: Antibacterial activity against methicillin resistant Staphylococcus aureus ATCC 33591 infected in iv dosed CD1 mouse model of septicemia assessed as protection against lethal infection administered as single dose starting from 1 hr post infection and measured 48 hrs post infection relative to control; details: ATCC 33591, iv, time 47 hrs, read-out: PD50

SMILES: CC[C@H](C)[C@H](NC(=O)[C@H](NC(=O)[C@@H](CCC(N)=O)NC(=O)[C@H](CO)NC(=O)[C@H](CC(C)C)NC(=O)[C@@H](Cc1ccccc1)NC)[C@@H](C)CC)C(=O)N[C@@H](CO)C(=O)N[C@H]1C(=O)N[C@@H](C)C(=O)NC(CCCN)C(=O)N[C@@H]([C@@H](C)CC)C(=O)O[C@H]1C (some centres undefined)
- MIC [1]: 4 µg/mL (≈ 3.33 µM)
- MIC [2]: 4 µg/mL (≈ 3.33 µM)

SMILES: CC[C@H](C)[C@H](NC(=O)[C@@H](Cc1ccc(-c2ccccc2)cc1)NC)C(=O)N[C@@H](CO)C(=O)N[C@H](CCCNC(=N)N)C(=O)N[C@@H](C(=O)N[C@H](C(=O)N[C@@H](CO)C(=O)N[C@H]1C(=O)N[C@@H](C)C(=O)N[C@@H](C[C@H]2CNC(=N)N2)C(=O)N[C@@H]([C@@H](C)CC)C(=O)O[C@H]1C)[C@@H](C)CC)[C@@H](C)CC
- MIC [3]: 0.25 µg/mL (≈ 0.186 µM)
- MIC [4]: 0.25 µg/mL (≈ 0.186 µM)

SMILES: CC[C@H](C)[C@H](NC(=O)[C@@H](Cc1ccccc1)NC)C(=O)N[C@@H](CO)C(=O)N[C@H](CCC(N)=O)C(=O)N[C@@H](C(=O)N[C@H](C(=O)N[C@@H](CO)C(=O)N[C@H]1C(=O)N[C@@H](C)C(=O)N[C@@H](CCC/N=C(\N)N(C)C)C(=O)N[C@@H]([C@@H](C)CC)C(=O)O[C@H]1C)[C@@H](C)CC)[C@@H](C)CC
- MIC [5]: 4 µg/mL (≈ 3.14 µM)

SMILES: CC[C@H](C)[C@H](NC(=O)[C@@H](Cc1ccccc1)NC)C(=O)N[C@@H](CO)C(=O)N[C@H](CCC(N)=O)C(=O)N[C@@H](C(=O)N(C)[C@H](C(=O)N[C@@H](CO)C(=O)N[C@H]1C(=O)N[C@@H](C)C(=O)N[C@@H](CCCCN)C(=O)N[C@@H]([C@@H](C)CC)C(=O)O[C@H]1C)[C@@H](C)CC)[C@@H](C)CC
- MIC [6]: 16 µg/mL

SMILES: CC[C@H](C)[C@H](NC(=O)[C@@H](Cc1ccccc1)NC)C(=O)N[C@@H](CO)C(=O)N(C)[C@H](CCC(N)=O)C(=O)N[C@@H](C(=O)N[C@H](C(=O)N[C@@H](CO)C(=O)N[C@H]1C(=O)N[C@@H](C)C(=O)N[C@@H](CCCCN)C(=O)N[C@@H]([C@@H](C)CC)C(=O)O[C@H]1C)[C@@H](C)CC)[C@@H](C)CC
- MIC [7]: 16 µg/mL (≈ 13 µM)
- MIC [8]: 16 µg/mL (≈ 13 µM)

SMILES: CCCCC1NC(=O)C(CCCC(F)(F)F)NC(=O)[C@H](C)NC(=O)[C@H](NC(=O)[C@H](CO)NC(=O)[C@@H](NC(=O)[C@H](NC(=O)[C@@H](CCC(N)=O)NC(=O)[C@H](CO)NC(=O)[C@@H](NC(=O)[C@@H](Cc2ccccc2)NC)[C@@H](C)CC)[C@@H](C)CC)[C@@H](C)CC)[C@H](C)OC1=O (some centres undefined)
- MIC [9]: 8 µg/mL (≈ 6.37 µM)
- MIC [10]: 32 µg/mL

SMILES: CC[C@H](C)[C@H](NC(=O)[C@@H](Cc1ccccc1)NC)C(=O)N[C@@H](CO)C(=O)N[C@H](CCC(N)=O)C(=O)N[C@@H](C(=O)N[C@H](C(=O)N[C@@H](CO)C(=O)N[C@H]1C(=O)N[C@@H](C)C(=O)N[C@@H](CCCNC(=N)N)C(=O)N[C@@H]([C@@H](C)CC)C(=O)O[C@H]1C)[C@@H](C)CC)[C@@H](C)CC
- MIC [11]: 1.6 µg/mL (≈ 1.29 µM)
- MIC [12]: 2 µg/mL (≈ 1.61 µM)
- MIC [13]: 0.4 µg/mL (≈ 0.321 µM)

SMILES: CC[C@H](C)[C@@H]1NC(=O)[C@H](CCCNC(=N)N)NC(=O)[C@H](C)NC(=O)[C@H](NC(=O)[C@H](CO)NC(=O)[C@@H](NC(=O)[C@H](NC(=O)[C@@H](CCC(N)=O)NC(=O)[C@H](CO)NC(=O)[C@@H](NC(=O)[C@@H](Cc2ccccc2)NC)[C@@H](C)CC)[C@@H](C)CC)[C@@H](C)CC)CNC1=O
- MIC [8]: 1 µg/mL (≈ 0.813 µM)

SMILES: CCCCC1NC(=O)[C@H](CCCNC(=N)N)NC(=O)[C@H](C)NC(=O)[C@H](NC(=O)[C@H](CO)NC(=O)[C@@H](NC(=O)[C@H](NC(=O)[C@@H](CCC(N)=O)NC(=O)[C@H](CO)NC(=O)[C@@H](NC(=O)[C@@H](Cc2ccccc2)NC)[C@@H](C)CC)[C@@H](C)CC)[C@@H](C)CC)[C@H](C)OC1=O (some centres undefined)
- MIC [9]: 8 µg/mL (≈ 6.43 µM)
- MIC [10]: 64 µg/mL

SMILES: CC[C@H](C)[C@H](NC(=O)[C@@H](Cc1ccccc1)NC)C(=O)N[C@@H](CO)C(=O)N[C@H](CCC(N)=O)C(=O)N[C@@H](C(=O)N[C@H](C(=O)N[C@@H](CO)C(=O)N[C@H]1C(=O)N[C@@H](C)C(=O)N[C@@H](Cc2ncc[nH]2)C(=O)N[C@@H]([C@@H](C)CC)C(=O)O[C@H]1C)[C@@H](C)CC)[C@@H](C)CC
- MIC [14]: 2 µg/mL (≈ 1.63 µM)
- MIC [15]: 8 µg/mL (≈ 6.53 µM)
- MIC [5]: 16 µg/mL (≈ 13.1 µM)

SMILES: CC[C@@H](C)[C@H](NC(=O)[C@H](CCC(N)=O)NC(=O)[C@@H](CO)NC(=O)[C@H](NC(=O)[C@H](Cc1ccccc1)NC)[C@H](C)CC)C(=O)N[C@@H](C(=O)N[C@H](CO)C(=O)N[C@@H]1C(=O)N[C@H](C)C(=O)N[C@H](CCCNC(=N)N)C(=O)N[C@H]([C@H](C)CC)C(=O)O[C@@H]1C)[C@H](C)CC
- MIC [8]: 2 µg/mL (≈ 1.61 µM)
- MIC [16]: 2 µg/mL (≈ 1.61 µM)

SMILES: CC[C@H](C)[C@H](NC(=O)[C@@H](Cc1ccccc1)NC)C(=O)N[C@@H](CO)C(=O)N[C@H](CCC(N)=O)C(=O)N[C@@H](C(=O)N[C@H](C(=O)N[C@@H](CO)C(=O)N[C@H]1C(=O)N[C@@H](C)C(=O)N[C@@H](CCCNC(N)=O)C(=O)N[C@@H]([C@@H](C)CC)C(=O)O[C@H]1C)[C@@H](C)CC)[C@@H](C)CC
- MIC [5]: 16 µg/mL (≈ 12.8 µM)

SMILES: CC[C@H](C)[C@@H]1NC(=O)[C@H](C[C@H]2CNC(=N)N2)NC(=O)[C@H](C)NC(=O)[C@H](NC(=O)[C@H](CO)NC(=O)[C@@H](NC(=O)[C@H](NC(=O)[C@@H](CCC(N)=O)NC(=O)[C@H](CO)NC(=O)[C@@H](NC(=O)[C@@H](Cc2ccccc2)NC)[C@@H](C)CC)[C@@H](C)CC)[C@@H](C)CC)CNC1=O
- MIC [3]: 0.185 µg/mL (≈ 0.151 µM)

SMILES: CC[C@H](C)[C@H](NC(=O)[C@@H](Cc1ccccc1)NC)C(=O)N[C@@H](CO)C(=O)N[C@H](CCC(N)=O)C(=O)N[C@@H](C(=O)N[C@H](C(=O)N[C@@H](CO)C(=O)N[C@H]1C(=O)N[C@@H](CCCCNS(=O)(=O)c2ccc(-c3c4ccc(=[N+](CC)CC)cc-4oc4cc(N(CC)CC)ccc34)c(S(=O)(=O)[O-])c2)C(=O)N[C@@H](CCCNC(=N)N)C(=O)N[C@@H]([C@@H](C)CC)C(=O)O[C@H]1C)[C@@H](C)CC)[C@@H](C)CC
- MIC [17]: 4 µg/mL (≈ 2.17 µM)
- MIC [18]: 8 µg/mL (≈ 4.34 µM)
- MIC [19]: 4 µg/mL (≈ 2.17 µM)
- MIC [20]: 8 µg/mL (≈ 4.34 µM)
- MIC [21]: 8 µg/mL (≈ 4.34 µM)

SMILES: CN[C@H](CC(C)C)C(=O)N[C@H]1C(=O)N[C@@H](CC(N)=O)C(=O)N[C@H]2C(=O)N[C@H]3C(=O)N[C@H](C(=O)N[C@H](C(=O)O)c4cc(O)cc(O)c4-c4cc3ccc4O)[C@H](O)c3ccc(c(Cl)c3)Oc3cc2cc(c3O[C@@H]2O[C@H](CO)[C@@H](O)[C@H](O)[C@H]2O[C@H]2C[C@](C)(N)[C@H](O)[C@H](C)O2)Oc2ccc(cc2Cl)[C@H]1O [VANCOMYCIN]
- ED50 [22]: 2.75 mg/kg
